Measurements from patent US12258328B2, “6-membered heteroaryl-containing aminopyridine compounds as EGFR inhibitors” (YUHAN CORPORATION, priority 2021, dated 2025).
Where two headings read alike, the source gives them in different places.

Legend:
EGFR L858R/C797S = EGFR L858R/C797S (Homo sapiens, UniProt P00533, C797S/L858R); assay: Biochemical EGFR kinase assay (Lance Ultra TR-FRET), double mutant L858R/C797S
Method in brief: (§1)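 Enzyme reactions lasted 1 hour at room temperature with test compounds between 0.003 and 10 μM, followed by 10 mM EDTA quench.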

EGFR del19/C797S = EGFR del19/C797S (Homo sapiens, UniProt P00533, C797S/DEL746-750); assay: Biochemical EGFR kinase assay (Lance Ultra TR-FRET), double mutant del19/C797S
EGFR del19/C797S, sequence (P00533 with tags, fused parts or gaps DEL746-750/C797S): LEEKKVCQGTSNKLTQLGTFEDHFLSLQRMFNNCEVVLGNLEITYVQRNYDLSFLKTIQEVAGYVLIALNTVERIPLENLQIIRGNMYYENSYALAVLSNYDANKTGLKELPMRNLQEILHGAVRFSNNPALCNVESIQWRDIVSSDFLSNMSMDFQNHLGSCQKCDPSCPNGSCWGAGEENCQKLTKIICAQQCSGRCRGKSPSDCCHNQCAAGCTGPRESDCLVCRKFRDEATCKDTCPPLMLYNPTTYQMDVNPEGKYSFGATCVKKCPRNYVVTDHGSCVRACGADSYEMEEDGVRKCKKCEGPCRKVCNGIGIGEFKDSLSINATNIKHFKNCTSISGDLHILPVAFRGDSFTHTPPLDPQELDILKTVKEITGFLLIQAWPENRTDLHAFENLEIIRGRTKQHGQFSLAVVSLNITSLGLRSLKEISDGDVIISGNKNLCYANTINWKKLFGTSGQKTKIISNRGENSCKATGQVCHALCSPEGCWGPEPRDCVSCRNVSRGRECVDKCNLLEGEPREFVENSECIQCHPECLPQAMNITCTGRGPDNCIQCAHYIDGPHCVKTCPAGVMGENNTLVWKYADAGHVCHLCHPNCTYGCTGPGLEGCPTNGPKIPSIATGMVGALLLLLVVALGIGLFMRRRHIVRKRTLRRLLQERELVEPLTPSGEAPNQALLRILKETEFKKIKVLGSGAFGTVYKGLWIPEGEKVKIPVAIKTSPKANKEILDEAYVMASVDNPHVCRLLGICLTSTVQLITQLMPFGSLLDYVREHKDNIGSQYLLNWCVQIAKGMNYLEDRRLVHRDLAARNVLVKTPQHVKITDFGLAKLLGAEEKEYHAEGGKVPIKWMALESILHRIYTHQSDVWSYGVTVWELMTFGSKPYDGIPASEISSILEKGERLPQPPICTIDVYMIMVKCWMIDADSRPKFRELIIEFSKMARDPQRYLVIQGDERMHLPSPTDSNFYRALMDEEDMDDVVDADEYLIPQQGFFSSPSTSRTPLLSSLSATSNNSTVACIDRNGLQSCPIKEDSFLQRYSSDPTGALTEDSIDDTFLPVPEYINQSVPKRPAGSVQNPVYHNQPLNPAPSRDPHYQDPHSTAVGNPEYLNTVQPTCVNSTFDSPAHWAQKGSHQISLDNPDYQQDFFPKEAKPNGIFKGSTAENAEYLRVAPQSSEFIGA
Method in brief: as §1

EGFR wildtype = EGFR wildtype (Homo sapiens, UniProt P00533); assay: Biochemical EGFR kinase assay (Lance Ultra TR-FRET), wildtype
EGFR wildtype, sequence (P00533 25-1210): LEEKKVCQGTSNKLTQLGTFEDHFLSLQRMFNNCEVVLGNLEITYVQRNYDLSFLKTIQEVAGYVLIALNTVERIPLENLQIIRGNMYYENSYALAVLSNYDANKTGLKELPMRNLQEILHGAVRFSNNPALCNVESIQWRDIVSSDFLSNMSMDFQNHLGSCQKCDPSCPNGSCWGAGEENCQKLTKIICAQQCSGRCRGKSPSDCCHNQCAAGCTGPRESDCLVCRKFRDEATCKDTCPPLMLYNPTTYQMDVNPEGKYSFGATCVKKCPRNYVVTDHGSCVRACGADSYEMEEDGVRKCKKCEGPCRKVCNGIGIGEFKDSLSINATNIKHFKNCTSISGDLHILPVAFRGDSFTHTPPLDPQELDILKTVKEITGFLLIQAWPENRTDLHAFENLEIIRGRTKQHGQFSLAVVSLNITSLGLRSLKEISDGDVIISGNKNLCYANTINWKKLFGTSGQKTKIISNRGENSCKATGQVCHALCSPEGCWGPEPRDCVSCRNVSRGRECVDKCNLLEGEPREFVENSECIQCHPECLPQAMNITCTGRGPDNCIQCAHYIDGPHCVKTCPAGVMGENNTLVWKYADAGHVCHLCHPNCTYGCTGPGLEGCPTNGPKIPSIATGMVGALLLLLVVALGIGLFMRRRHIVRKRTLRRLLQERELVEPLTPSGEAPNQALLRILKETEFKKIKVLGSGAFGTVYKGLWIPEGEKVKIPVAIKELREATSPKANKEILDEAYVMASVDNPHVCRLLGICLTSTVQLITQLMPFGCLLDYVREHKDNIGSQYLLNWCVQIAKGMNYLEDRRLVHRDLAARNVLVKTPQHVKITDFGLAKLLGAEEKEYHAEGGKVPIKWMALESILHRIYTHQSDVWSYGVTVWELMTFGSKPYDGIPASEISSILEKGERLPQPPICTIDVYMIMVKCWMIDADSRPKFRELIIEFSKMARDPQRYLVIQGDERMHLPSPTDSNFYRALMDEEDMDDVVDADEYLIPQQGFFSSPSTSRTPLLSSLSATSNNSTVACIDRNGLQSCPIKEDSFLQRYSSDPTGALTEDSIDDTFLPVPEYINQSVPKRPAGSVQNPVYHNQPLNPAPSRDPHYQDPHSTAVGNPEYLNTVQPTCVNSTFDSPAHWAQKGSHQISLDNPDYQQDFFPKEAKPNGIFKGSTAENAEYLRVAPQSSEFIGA
Method in brief: as §1

EGFR L858R/T790M/C797S = EGFR L858R/T790M/C797S (Homo sapiens, UniProt P00533, C797S/L858R/T790M); assay: Biochemical EGFR kinase assay (Lance Ultra TR-FRET), triple mutant L858R/T790M/C797S
EGFR L858R/T790M/C797S, sequence (P00533 25-1210 T790M/C797S/L858R): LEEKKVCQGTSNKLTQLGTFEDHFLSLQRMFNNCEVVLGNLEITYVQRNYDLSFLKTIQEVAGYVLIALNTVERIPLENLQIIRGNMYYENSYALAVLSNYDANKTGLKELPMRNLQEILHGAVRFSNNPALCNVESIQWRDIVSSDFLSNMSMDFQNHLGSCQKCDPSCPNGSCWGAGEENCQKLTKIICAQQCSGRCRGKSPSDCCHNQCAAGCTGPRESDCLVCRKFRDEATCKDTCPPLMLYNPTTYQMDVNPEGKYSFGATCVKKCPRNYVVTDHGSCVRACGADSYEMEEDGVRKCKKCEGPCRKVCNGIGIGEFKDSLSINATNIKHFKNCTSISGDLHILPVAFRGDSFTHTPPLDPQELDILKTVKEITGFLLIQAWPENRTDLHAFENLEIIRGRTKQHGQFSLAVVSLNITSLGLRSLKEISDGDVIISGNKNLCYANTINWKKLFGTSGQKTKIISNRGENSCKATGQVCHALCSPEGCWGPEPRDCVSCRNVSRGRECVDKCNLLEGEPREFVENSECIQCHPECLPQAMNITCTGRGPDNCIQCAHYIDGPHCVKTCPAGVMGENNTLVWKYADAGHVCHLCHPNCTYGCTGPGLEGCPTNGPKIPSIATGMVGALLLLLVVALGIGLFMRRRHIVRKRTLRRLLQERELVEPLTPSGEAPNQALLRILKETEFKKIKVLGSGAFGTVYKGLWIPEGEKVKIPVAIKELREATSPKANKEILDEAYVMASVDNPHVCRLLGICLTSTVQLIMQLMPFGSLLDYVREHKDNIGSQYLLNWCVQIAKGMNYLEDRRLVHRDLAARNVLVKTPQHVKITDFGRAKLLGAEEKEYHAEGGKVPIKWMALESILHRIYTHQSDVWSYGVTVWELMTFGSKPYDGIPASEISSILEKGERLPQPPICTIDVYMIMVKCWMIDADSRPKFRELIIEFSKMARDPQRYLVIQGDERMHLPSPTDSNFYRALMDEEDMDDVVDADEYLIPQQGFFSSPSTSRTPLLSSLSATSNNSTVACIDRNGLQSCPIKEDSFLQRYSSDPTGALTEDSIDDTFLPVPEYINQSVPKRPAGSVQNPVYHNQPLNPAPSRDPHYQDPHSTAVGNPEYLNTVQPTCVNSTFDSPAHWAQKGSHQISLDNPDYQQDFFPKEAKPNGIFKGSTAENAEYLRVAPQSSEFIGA
Method in brief: as §1

EGFR del19/T790M/C797S = EGFR del19/T790M/C797S (Homo sapiens, UniProt P00533, C797S/DEL746-750/T790M); assay: Biochemical EGFR kinase assay (Lance Ultra TR-FRET), triple mutant del19/T790M/C797S
Method in brief: as §1

[1] = ATP at Km, read-out: IC50 L858R/C797S, Km ATP
[2] = ATP at Km, read-out: IC50 del19/C797S, Km ATP
[3] = ATP at Km, read-out: IC50 L858R/T790M/C797S, Km ATP
[4] = IC50 L858R/T790M/C797S, 100 μM ATP
[5] = ATP at Km, read-out: IC50 del19/T790M/C797S, Km ATP
[6] = IC50 del19/T790M/C797S, 100 μM ATP
[7] = ATP at Km, read-out: IC50 WT, Km ATP
[8] = IC50 L858R/C797S (nM) 100 μM ATP, 100 μM ATP
[9] = Km ATP, read-out: IC50 L858R/C797S (nM) Km ATP
[10] = IC50 del19/C797S (nM) 100 μM ATP, 100 μM ATP
[11] = Km ATP, read-out: IC50 del19/C797S (nM) Km ATP
[12] = IC50 WT (nM) 100 μM ATP, 100 μM ATP
[13] = Km ATP, read-out: IC50 WT (nM) Km ATP
[14] = IC50 L858R/T790M/C797S (nM) 100 μM ATP, 100 μM ATP
[15] = Km ATP, read-out: IC50 L858R/T790M/C797S (nM) Km ATP
[16] = IC50 del19/T790M/C797S (nM) 100 μM ATP, 100 μM ATP
[17] = Km ATP, read-out: IC50 del19/T790M/C797S (nM) Km ATP

EGFR L858R/C797S, sequence (P00533 25-1210 C797S/L858R): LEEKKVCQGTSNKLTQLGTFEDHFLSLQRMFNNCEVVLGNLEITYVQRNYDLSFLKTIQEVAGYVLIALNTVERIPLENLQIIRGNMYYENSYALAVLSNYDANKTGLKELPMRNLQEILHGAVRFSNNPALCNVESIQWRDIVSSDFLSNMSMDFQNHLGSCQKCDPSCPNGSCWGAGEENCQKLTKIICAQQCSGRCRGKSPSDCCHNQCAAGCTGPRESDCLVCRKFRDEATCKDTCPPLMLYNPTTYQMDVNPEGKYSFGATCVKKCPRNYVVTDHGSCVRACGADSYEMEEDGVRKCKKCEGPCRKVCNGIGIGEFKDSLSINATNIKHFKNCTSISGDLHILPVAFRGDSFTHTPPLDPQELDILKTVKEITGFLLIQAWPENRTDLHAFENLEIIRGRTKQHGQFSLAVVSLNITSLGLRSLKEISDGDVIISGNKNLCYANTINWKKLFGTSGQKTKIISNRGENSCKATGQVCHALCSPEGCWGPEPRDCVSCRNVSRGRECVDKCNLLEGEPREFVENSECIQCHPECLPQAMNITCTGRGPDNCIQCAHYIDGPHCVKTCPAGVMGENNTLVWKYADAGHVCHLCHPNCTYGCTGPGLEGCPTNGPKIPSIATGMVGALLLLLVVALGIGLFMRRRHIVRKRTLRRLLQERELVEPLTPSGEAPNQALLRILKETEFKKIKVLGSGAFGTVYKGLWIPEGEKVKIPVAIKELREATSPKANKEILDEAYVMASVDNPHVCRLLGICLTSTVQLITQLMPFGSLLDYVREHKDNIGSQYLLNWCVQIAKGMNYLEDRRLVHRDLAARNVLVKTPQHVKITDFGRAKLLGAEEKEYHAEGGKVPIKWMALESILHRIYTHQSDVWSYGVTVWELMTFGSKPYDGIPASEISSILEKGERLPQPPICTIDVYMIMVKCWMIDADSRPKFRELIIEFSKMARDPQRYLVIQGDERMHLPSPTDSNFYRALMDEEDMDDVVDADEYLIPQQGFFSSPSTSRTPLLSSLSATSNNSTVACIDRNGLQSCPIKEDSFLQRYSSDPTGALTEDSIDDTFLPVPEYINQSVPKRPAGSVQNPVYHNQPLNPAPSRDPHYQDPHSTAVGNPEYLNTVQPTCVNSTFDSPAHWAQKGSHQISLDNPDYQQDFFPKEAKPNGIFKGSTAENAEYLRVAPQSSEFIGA

| SMILES | IC50 (EGFR L858R/C797S; [1]) [nM] | IC50 (EGFR L858R/C797S; IC50 L858R/C797S, 100 μM ATP) [nM] | IC50 (EGFR del19/C797S; [2]) [nM] | IC50 (EGFR del19/C797S; IC50 del19/C797S, 100 μM ATP) [nM] | IC50 (EGFR wildtype; IC50 WT, 100 μM ATP) [nM] | IC50 (EGFR L858R/T790M/C797S; [3]) [nM] | IC50 (EGFR L858R/T790M/C797S; [4]) [nM] | IC50 (EGFR del19/T790M/C797S; [5]) [nM] | IC50 (EGFR del19/T790M/C797S; [6]) [nM] | IC50 (EGFR wildtype; [7]) [nM] | IC50 (EGFR L858R/C797S; [8]) [nM] | IC50 (EGFR L858R/C797S; [9]) [nM] | IC50 (EGFR del19/C797S; [10]) [nM] | IC50 (EGFR del19/C797S; [11]) [nM] | IC50 (EGFR wildtype; [12]) [nM] | IC50 (EGFR wildtype; [13]) [nM] | IC50 (EGFR L858R/T790M/C797S; [14]) [nM] | IC50 (EGFR L858R/T790M/C797S; [15]) [nM] | IC50 (EGFR del19/T790M/C797S; [16]) [nM] | IC50 (EGFR del19/T790M/C797S; [17]) [nM] |
| --- | --- | --- | --- | --- | --- | --- | --- | --- | --- | --- | --- | --- | --- | --- | --- | --- | --- | --- | --- | --- |
| CN(C)S(=O)(=O)c1ccc(-c2cnc(Nc3ccnc(-c4cnn(S(=O)(=O)C5CC5)c4)n3)cc2N[C@H]2CC[C@@H](C(C)(C)O)CC2)nc1 [Example 165, 6′-((2-(1-(Cyclopropylsulfonyl)-1H-pyrazol-4-yl)pyrimidin-4-yl)amino)-4′-(((1s,4s)-4-(2-hydroxypropan-2-yl)cyclohexyl)amino)-N,N-dimethyl-[2,3′-bipyridine]-5-sulfonamide] | 1.6 | 18.5 | 1.8 | 7.6 | > 10000 | 1 | 1.7 | 3.5 | 1.2 | – | – | – | – | – | – | – | – | – | – | – |
| C[C@]1(O)CC[C@@H](Nc2cc(Nc3ccnc(-c4cnn(S(=O)(=O)C5CC5)c4)n3)ncc2-c2ccc(OCCO)cn2)CC1 [Example 205, (1s,4s)-4-((6′-((2-(1-(Cyclopropylsulfonyl)-1H-pyrazol-4-yl)pyrimidin-4-yl)amino)-5-(2-hydroxyethoxy)-[2,3′-bipyridin]-4′-yl)amino)-1-methylcyclohexan-1-ol] | 0.4 | 3.5 | 0.7 | 0.6 | 1440 | 0.2 | 0.2 | 0.3 | 0.7 | 2 | – | – | – | – | – | – | – | – | – | – |
| CC(C)(O)[C@H]1CC[C@@H](Nc2cc(Nc3ccnc(-c4cnn(S(=O)(=O)C5CC5)c4)n3)ncc2-c2cccc(F)n2)CC1 [Example 163, 2-((1s,4s)-4-((6′-((2-(1-(Cyclopropylsulfonyl)-1H-pyrazol-4-yl)pyrimidin-4-yl)amino)-6-fluoro-[2,3′-bipyridin]-4′-yl)amino)cyclohexyl)propan-2-ol] | 13 | 49.4 | 2.6 | 3.1 | > 10000 | 0.7 | 2.3 | – | 2.6 | 18.7 | – | – | – | – | – | – | – | – | – | – |
| COC1CN(c2ccc(-c3cnc(Nc4ccnc(-c5cnn(S(=O)(=O)C6CC6)c5)n4)cc3N[C@H]3CC[C@@H](CN(C)C)CC3)nc2)C1 [Example 93, N^6′-(2-(1-(Cyclopropylsulfonyl)-1H-pyrazol-4-yl)pyrimidin-4-yl)-N^4′-((1s,4s)-4-((dimethylamino)methyl)cyclohexyl)-5-(3-methoxyazetidin-1-yl)-[2,3′-bipyridine]-4′,6′-diamine] | – | – | – | – | – | – | – | – | – | – | 2.2 | 0.3 | 0.5 | 0.2 | 172 | 0.1 | 0.3 | 0.1 | 0.4 | 0.3 |
| CN(C)Cc1ccnc(-c2cnc(Nc3ccnc(-c4cnn(S(=O)(=O)C5CC5)c4)n3)cc2N[C@H]2CC[C@@](C)(O)CC2)c1 [Example 64, (1s,4s)-4-((6′-((2-(1-(Cyclopropylsulfonyl)-1H-pyrazol-4-yl)pyrimidin-4-yl)amino)-4-((dimethylamino)methyl)-[2,3′-bipyridin]-4′-yl)amino)-1-methylcyclohexan-1-ol] | – | – | – | – | – | – | – | – | – | – | 0.9 | 0.2 | 0.2 | – | 1170 | 2.4 | 0.3 | 0.1 | 0.1 | 0.1 |
| O=S(=O)(C1CC1)n1cc(-c2nccc(Nc3cc(N[C@H]4CC[C@@H](CCO)CC4)c(-c4cc(C(F)F)ccn4)cn3)n2)cn1 [Example 97, 2-((1s,4s)-4-((6′-((2-(1-(Cyclopropylsulfonyl)-1H-pyrazol-4-yl)pyrimidin-4-yl)amino)-4-(difluoromethyl)-[2,3′-bipyridin]-4′-yl)amino)cyclohexyl)ethan-1-ol] | – | – | – | – | – | – | – | – | – | – | 52.6 | 2 | 6 | 2.3 | > 10000 | 7.4 | 1 | 0.5 | 2.2 | 2.1 |
| Cc1ccnc(-c2cnc(Nc3ccnc(-c4cnn(S(=O)(=O)C5CC5)c4)n3)cc2N[C@H]2CC[C@@](C)(O)CC2)c1 [Example 12, (1s,4s)-4-((6′-((2-(1-(Cyclopropylsulfonyl)-1H-pyrazol-4-yl)pyrimidin-4-yl)amino)-4-methyl-[2,3′-bipyridin]-4′-yl)amino)-1-methylcyclohexan-1-ol] | – | – | – | – | – | – | – | – | – | – | 11.5 | – | 1 | 0.4 | 2690 | 3.6 | 0.6 | 0.2 | 0.4 | – |
| O=S(=O)(C1CC1)n1cc(-c2nccc(Nc3cc(N[C@H]4CC[C@@H](CO)CC4)c(-c4cc(CN5CCC(F)(F)CC5)ccn4)cn3)n2)cn1 [Example 113, ((1s,4s)-4-((6′-((2-(1-(Cyclopropylsulfonyl)-1H-pyrazol-4-yl)pyrimidin-4-yl)amino)-4-((4,4-difluoropiperidin-1-yl)methyl)-[2,3′-bipyridin]-4′-yl)amino)cyclohexyl)methanol] | – | – | – | – | – | – | – | – | – | – | 20.8 | 8.8 | 19.9 | 11 | > 10000 | 15 | 3.2 | 2.3 | 5.3 | 7.5 |
| CN(C)Cc1cccc(-c2cnc(Nc3ccnc(-c4cnn(S(=O)(=O)C5CC5)c4)n3)cc2N[C@H]2CC[C@@](C)(O)CC2)n1 [Example 30, (1s,4s)-4-((6′-((2-(1-(Cyclopropylsulfonyl)-1H-pyrazol-4-yl)pyrimidin-4-yl)amino)-6-((dimethylamino)methyl)-[2,3′-bipyridin]-4′-yl)amino)-1-methylcyclohexan-1-ol] | – | – | – | – | – | – | – | – | – | – | 2 | – | 0.4 | – | 2910 | – | 0.1 | – | 0.1 | – |
| C[C@]1(O)CC[C@@H](Nc2cc(Nc3ccnc(-c4cnn(S(=O)(=O)C5CC5)c4)n3)ncc2-c2ncccc2OCC(F)F)CC1 [Example 334, (1s,4s)-4-((6′-((2-(1-(Cyclopropylsulfonyl)-1H-pyrazol-4-yl)pyrimidin-4-yl)amino)-3-(2,2-difluoroethoxy)-[2,3′-bipyridin]-4′-yl)amino)-1-methylcyclohexan-1-ol] | – | – | – | – | – | – | – | – | – | – | – | 191 | – | 170 | – | 189 | – | 1.4 | – | 2.1 |
| CN1CCN(C(=O)c2ccc(-c3cnc(Nc4ccnc(-c5cnn(S(=O)(=O)C6CC6)c5)n4)cc3N[C@H]3CC[C@@](C)(O)CC3)nc2)CC1 [Example 199, (6′-((2-(1-(Cyclopropylsulfonyl)-1H-pyrazol-4-yl)pyrimidin-4-yl)amino)-4′-(((1s,4s)-4-hydroxy-4-methylcyclohexyl)amino)-[2,3′-bipyridin]-5-yl)(4-methylpiperazin-1-yl)methanone] | 0.04 | 0.4 | 0.1 | 0.3 | 137 | 0.1 | 0.3 | 0.4 | 0.7 | 0.3 | – | – | – | – | – | – | – | – | – | – |
